Source: US10550143B2, “C,O-spiro aryl glycoside compounds, preparation therefor and use thereof” (SHANGHAI INSTITUTE OF MATERIA MEDICA, CHINESE ACADEMY OF …, priority 2015, dated 2020)

What was measured:
[1] = Pharmacokinetics in rats after intragastric and intravenous administration; assay type: in vivo, rat
Protocol: Six healthy rats were randomly divided into two groups, three for each group. A28 was administered orally and intravenously, and the drug was grounded and dissolved in 0.5% MC. Fasted for 8 h before testing.
Three rats were intravenously administrated with 2 mg/kg of test compound A28, and 3 rats were orally administered with 10 mg/kg of test compound A28. Blood was collected from the orbital venous plexus of rats before administration, at 15 min, 30 min, 1 hour, 2 hours, 4 hours, 8 hours, 24 hours after administration, respectively. Blood sample were taken from three rats at each time point for each dose, and the plasma was immediately centrifuged.

[2] = test system: SD rats; experiment: Acute administration of A28 at multiple doses, urinary glucose of SD rats; assay type: in vivo, rat; settings: within 24 h
Protocol: (1) 72 normal male SD rats were selected and randomly divided into 9 groups according to body weight and blood glucose, 8 in each group. […] After oral gavage, the rats were placed in rats metabolic cages, and urine was collected after 24 h, and the urine volume was recorded, then preserved under −20° C. Rats take food and water freely during the experimental period.
(2) Index Determination: Glucose levels in urine are measured by the glucose assay kit.

[3] = test system: C57BL/6J mice; experiment: Acute administration of A28 at multiple doses, oral glucose tolerance of C57BL/6J mice; assay type: in vivo, mouse; settings: for AUC0-2 h / Average hypoglycemic rate % (0-2 h) / Blood glucose level 15 min / Blood glucose level 30 min / Blood glucose level 60 min / Blood glucose level 90 min / Blood glucose level 120 min / Blood glucose level 0: C57BL/6J mice OGTT; for Blood glucose level 0: before sugar
Protocol: (1) Experimental Methods: 56 C57BL/6J mice were selected and starved for 6 h, took water freely, then randomly divided into 7 groups according to body weight and random blood glucose, 8 rats in each group. […] Average hypoglycemic rate %=(AUC0-120 min of solvent control group−AUC0-120 min of administration group)/(AUC0-120 min of solvent control group−AUC0-120 min of blank control group)*100%

[4] = test system: db/db mice; experiment: Chronic administration, fasting blood glucose in db/db mice; assay type: in vivo, mouse; settings: for fasting blood glucose Pre: before administration; for Hypoglycemic rate % week 1 / Hypoglycemic rate % week 2 / Hypoglycemic rate % week 3 / Hypoglycemic rate % week 4: fasting blood glucose
Protocol: (§1) Oral gavage administrated, daily dose volume was 10 mL/kg, administered once daily. Administration time was 9: 00-10:00 daily, and the administration period was 5 weeks.
The random blood glucose of mice in the normal control group, model control group, test substance administration group and positive control group were determined on the 7th, 14th, 21st, 28th day (9: 00-10:00) every week after the first administration, and food was removed and after 6 hours of starvation, the fasting blood glucose in each group was measured. Free drinking during the hunger process. The rate of decrease of blood glucose was calculated according to the following formula: Average hypoglycemic rate %=(Blood glucose of model control group−Blood glucose of administration group)/Model control group×100%

[5] = test system: db/db mice; experiment: Chronic administration, glycosylated hemoglobin level in db/db mice; assay type: in vivo, mouse; settings: for HbA1c Decline rate %: vs vehicle
Protocol: as §1
In the end of the above experiment, the orbital blood was taken from animals of each group and divided into two tubes, one was centrifuged to take blood cells for the determination of glycated hemoglobin content, the other tube was added with 25 μL EDTA in advance, centrifuged and the supernatant was taken to determine the indexes such as triglyceride (TG), total cholesterol (TC), total protein (TP), albumin, low density lipoprotein (LDL), high density lipoprotein (HDL), non-esterified fatty acid (NEFA) and so on.

[6] = test system: db/db mice; experiment: Chronic administration, glucose-stimulated insulin release in db/db mice; assay type: in vivo, mouse; settings: for Insulin AUC / Insulin (ng/ml) 0 min / Insulin (ng/ml) 15 min / Insulin (ng/ml) 30 min / Insulin (ng/ml) 60 min / Insulin (ng/ml) pre: glucose-stimulated insulin release, chronic administration
Protocol: as §1
The fourth week after administration, the mice were starved for 6 hours after morning administration and were orally administrated with glucose (1.5 g/kg), and blood was collected from the tail (10 μL EDTA+20 μL tail blood). Centrifuged and the supernatant was taken, stored at −20° C. for insulin test.

[7] = rat, plasma, po, gavage 10 mg/kg

## CCc1ccc(Cc2cc3c(cc2Cl)CO[C@]32O[C@H](C)[C@@H](O)[C@H](O)[C@H]2O)s1 [Example A28, (1S,3′R,4′S,5′S,6′R)-6′-methyl-6-((5-ethylthienyl)-2-methyl)-5-chloro-3′,4′,5′,6′-tetrahydro-3H-spiro[isobenzofuran-1,2′-pyran]-3′,4′,5′-triol]
[1]; rat, plasma, intravenous, vein 2 mg/kg
  AUC(0-t): 252 ng·h/mL
[1]; rat, plasma, iv, vein 2 mg/kg
  AUC(0-inf): 252 ng·h/mL
  Cmax: 201 ng/mL
  MRT: 0.982 h
  Tmax: 0.25 h
  half-life: 1.53 h
[1]; rat, plasma, oral, gavage 10 mg/kg vs vein 2 mg/kg, dose normalized, read-out: F (absolute bioavailability)
  bioavailability: 107%
[1]; [7]
  AUC(0-inf): 1350 ng·h/mL
  AUC(0-t): 1350 ng·h/mL
  Cmax: 273 ng/mL
  MRT: 3.79 h
  Tmax: 1.67 h
  half-life: 1.69 h
[1]; vein 2 mg/kg
  CLz: 134 mL/min/kg
[2]; oral 0.3 mg/kg
  Total sugar excretion: 10.55 ± 10.05 mg/100 g
  Urine concentration: 8.70 ± 1.98 mmol/L
  Urine volume: 16.25 ± 1.50 mL
[2]; oral 1 mg/kg
  Total sugar excretion: 149.08 ± 0.00 mg/100 g
  Urine concentration: 105.56 ± 0.00 mmol/L
  Urine volume: 19.25 ± 0.00 mL
[2]; oral 3 mg/kg
  Total sugar excretion: 441.27 ± 50.75 mg/100 g
  Urine concentration: 257.69 ± 32.96 mmol/L
  Urine volume: 25.00 ± 2.06 mL
[2]; oral 10 mg/kg
  Total sugar excretion: 1028.20 ± 83.93 mg/100 g
  Urine concentration: 359.48 ± 29.43 mmol/L
  Urine volume: 39.75 ± 1.57 mL
[2]; single oral 0.3, 1, 3 and 10 mg/kg
  urine glucose excretion: significantly promoted in a dose-dependent manner
[3]; oral 0.3 mg/kg
  AUC0-2 h: 21.6 ± 1.5 mmol·h/L
  Average hypoglycemic rate % (0-2 h): 2.0%
  Blood glucose level 15 min: 14.2 ± 2.1 mmol/L
  Blood glucose level 30 min: 13.0 ± 1.7 mmol/L
  Blood glucose level 60 min: 11.2 ± 0.8 mmol/L
  Blood glucose level 90 min: 9.1 ± 1.0 mmol/L
  Blood glucose level 120 min: 8.3 ± 1.0 mmol/L
  Blood glucose level 0: 7.5 ± 0.4 mmol/L
[3]; oral 1 mg/kg
  AUC0-2 h: 19.8 ± 1.0 mmol·h/L
  Average hypoglycemic rate % (0-2 h): 10.0%
  Blood glucose level 15 min: 12.5 ± 1.6 mmol/L
  Blood glucose level 30 min: 12.0 ± 0.8 mmol/L
  Blood glucose level 60 min: 9.9 ± 0.9 mmol/L
  Blood glucose level 90 min: 8.7 ± 0.7 mmol/L
  Blood glucose level 120 min: 7.9 ± 0.7 mmol/L
  Blood glucose level 0: 7.1 ± 0.6 mmol/L
[3]; oral 3 mg/kg
  AUC0-2 h: 18.5 ± 0.6 mmol·h/L
  Average hypoglycemic rate % (0-2 h): 16.2%
  Blood glucose level 15 min: 10.4 ± 1.0 mmol/L
  Blood glucose level 30 min: 11.3 ± 1.1 mmol/L
  Blood glucose level 60 min: 9.5 ± 0.7 mmol/L
  Blood glucose level 90 min: 8.4 ± 0.7 mmol/L
  Blood glucose level 120 min: 7.4 ± 0.6 mmol/L
  Blood glucose level 0: 6.4 ± 0.7 mmol/L
[3]; C57BL/6J mice, once administrated
  effective dose, reduction of blood glucose AUC within 2 h after sugar: 1 mg/kg
[4]; 0.3 mg/kg once daily oral
  fasting blood glucose week 1: 10.6 ± 0.9 mmol/L
  fasting blood glucose week 2: 10.5 ± 0.8 mmol/L
  fasting blood glucose week 3: 12.3 ± 0.9 mmol/L
  fasting blood glucose week 4: 12.6 ± 1.2 mmol/L
  fasting blood glucose Pre: 13.2 ± 0.7 mmol/L
  Hypoglycemic rate % week 1: 21.4%
  Hypoglycemic rate % week 2: 52.3%
  Hypoglycemic rate % week 3: 30.6%
  Hypoglycemic rate % week 4: 21.1%
[4]; 1 mg/kg once daily oral
  fasting blood glucose week 1: 8.7 ± 0.6 mmol/L
  fasting blood glucose week 2: 9.4 ± 0.9 mmol/L
  fasting blood glucose week 3: 10.4 ± 1.0 mmol/L
  fasting blood glucose week 4: 10.0 ± 0.7 mmol/L
  fasting blood glucose Pre: 13.2 ± 1.3 mmol/L
  Hypoglycemic rate % week 1: 35.0%
  Hypoglycemic rate % week 2: 57.2%
  Hypoglycemic rate % week 3: 41.5%
  Hypoglycemic rate % week 4: 37.8%
[4]; 3 mg/kg once daily oral
  fasting blood glucose week 1: 8.6 ± 0.5 mmol/L
  fasting blood glucose week 2: 6.8 ± 0.6 mmol/L
  fasting blood glucose week 3: 8.1 ± 0.5 mmol/L
  fasting blood glucose week 4: 8.5 ± 0.6 mmol/L
  fasting blood glucose Pre: 13.5 ± 1.5 mmol/L
  Hypoglycemic rate % week 1: 36.2%
  Hypoglycemic rate % week 2: 69.2%
  Hypoglycemic rate % week 3: 54.2%
  Hypoglycemic rate % week 4: 46.8%
[4]; 10 mg/kg once daily oral
  fasting blood glucose week 1: 7.6 ± 0.6 mmol/L
  fasting blood glucose week 2: 6.9 ± 0.5 mmol/L
  fasting blood glucose week 3: 7.2 ± 0.6 mmol/L
  fasting blood glucose week 4: 7.3 ± 0.5 mmol/L
  fasting blood glucose Pre: 13.8 ± 1.2 mmol/L
  Hypoglycemic rate % week 1: 43.2%
  Hypoglycemic rate % week 2: 68.9%
  Hypoglycemic rate % week 3: 59.5%
  Hypoglycemic rate % week 4: 54.5%
[4]; four weeks chronic administration
  effective dose, fasting blood glucose, random blood glucose and HbA1c reduction: 0.3 mg/kg
[5]; dose 0.3 mg/kg
  HbA1c (%): 5.83 ± 0.36 %
  HbA1c Decline rate %: 23.2%
[5]; dose 1 mg/kg
  HbA1c (%): 6.02 ± 0.30 %
  HbA1c Decline rate %: 20.7%
[5]; dose 3 mg/kg
  HbA1c (%): 4.95 ± 0.37 %
  HbA1c Decline rate %: 34.8%
[5]; dose 10 mg/kg
  HbA1c (%): 4.50 ± 0.27 %
  HbA1c Decline rate %: 40.7%
[6]; four weeks chronic administration, 0.3 mg/kg and 1 mg/kg
  glucose-stimulated insulin release: significantly improved glucose-stimulated insulin release in db/db mice in a dose-dependent manner
[6]; dose 0.3 mg/kg
  Insulin AUC: 43.85 ± 5.69
  Insulin (ng/ml) 0 min: 21.58 ± 2.48 ng/mL
  Insulin (ng/ml) 15 min: 51.67 ± 7.86 ng/mL
  Insulin (ng/ml) 30 min: 46.22 ± 8.10 ng/mL
  Insulin (ng/ml) 60 min: 43.61 ± 4.85 ng/mL
  Insulin (ng/ml) pre: 7.68 ± 0.79 ng/mL
[6]; dose 1 mg/kg
  Insulin AUC: 35.92 ± 5.00
  Insulin (ng/ml) 0 min: 17.47 ± 2.20 ng/mL
  Insulin (ng/ml) 15 min: 41.94 ± 8.42 ng/mL
  Insulin (ng/ml) 30 min: 40.07 ± 7.01 ng/mL
  Insulin (ng/ml) 60 min: 32.89 ± 3.69 ng/mL
  Insulin (ng/ml) pre: 7.86 ± 0.94 ng/mL
[6]; dose 3 mg/kg
  Insulin AUC: 32.49 ± 5.92
  Insulin (ng/ml) 0 min: 17.57 ± 4.54 ng/mL
  Insulin (ng/ml) 15 min: 38.42 ± 8.58 ng/mL
  Insulin (ng/ml) 30 min: 36.06 ± 8.77 ng/mL
  Insulin (ng/ml) 60 min: 28.68 ± 8.81 ng/mL
  Insulin (ng/ml) pre: 7.92 ± 1.60 ng/mL
[6]; dose 10 mg/kg
  Insulin AUC: 17.20 ± 1.59
  Insulin (ng/ml) 0 min: 9.02 ± 0.59 ng/mL
  Insulin (ng/ml) 15 min: 16.70 ± 2.42 ng/mL
  Insulin (ng/ml) 30 min: 13.42 ± 1.94 ng/mL
  Insulin (ng/ml) 60 min: 27.45 ± 4.43 ng/mL
  Insulin (ng/ml) pre: 7.45 ± 1.00 ng/mL
